Test results: article PMC12477777, “Human exposure to green spaces and monoterpenes: discovery and use of α-pinene metabolites as biomarkers” (Environment international, 2025)
Like-named read-outs stand apart in the source and are kept apart here.

Legend:
[1] = cited from earlier work
[2] = Relative quantification of urinary aPM (UPLC-QTOF-MS, creatinine-normalized) after controlled α-pinene inhalation; type: in vivo, human; conditions: for Frequency of occurrence (percentage of samples with analyte detected) / Tmax / Maximum response (highest peak response across all urine samples) / Observed Tmax: human urine after α-pinene inhalation; for Tmax: inhaled or intranasal, read-out: Observed Tmax; for Proportion (observed) after α-pinene inhalation: share of total response of 22 aPM, averaged over post-exposure samples
Experimental: (§1) Briefly, for controlled inhalation experiments, eight healthy volunteers were exposed to α-pinene in a custom-built exposure chamber via inhalation from a 15 ml conical tube, containing approximately 100 μl α-pinene, for a duration of 10 min. Urine samples were collected before exposure (0 h) and 0.5, 1, 2, 3, and 4 h after exposure. […] Urine samples were collected both before (0 h) or 4 h after exposure. After collection, the urine samples were centrifuged and stored at −80 °C before analysis. […] Demographic information, including sex, age and race, can be found in Table S1.
(§2) Briefly, after 1:10 dilution, urine samples were separated using an Acquity I-Class UPLC system with an Acquity Premier CSH C18 UPLC column (Waters, MA) with a gradient comprising 0.1 % formic acid in water as the solvent A and 0.1 % formic acid in acetonitrile as the solvent B. Mass Spectrometry Elevated Energy (MS^E) data were collected using a Waters Synapt XS MS (Waters, MA) with an ESI ion source operated in the negative mode. Subsequent analyses of raw files were performed using UNIFI 1.9 and Progenesis QI 3.0 (both from Waters, MA). To validate LC-MS performance, one quality control (QC) sample, prepared by pooling equal amount of each urine sample, was injected after every ten urine sample injections.
(§3) Relative quantification of aPM was performed based on the peak responses normalized to urinary creatinine levels. Urinary creatinine levels were measured using an Ace Axcel Clinical Chemistry System with ACE Creatinine Reagent from Alfa Wassermann (West Caldwell, NJ). Statistical analyses, including ANOVA and Student’s t-tests, were conducted using SAS 9.4 (SAS Institute, NC) to explore differences in aPM across various time points. […] A threshold for statistical significance was defined as p < 0.05.

[3] = Kinetic modeling of urinary aPM with a pseudo one-compartment nonlinear mixed-effects model after α-pinene inhalation; type: in vivo, human; conditions: for F (%), fraction of metabolite generated from absorbed α-pinene: human urine after 10 min α-pinene inhalation, F normalized to the sum of 22 detected metabolites; for Ka, first-order generation constant / half-life / k el / Elimination t1/2 / Ke, first-order elimination rate constant: human urine after α-pinene inhalation, pseudo one-compartment model; for half-life / k el: inhaled or intranasal; for half-life: read-out: Elimination t1/2 (converted); for k el: read-out: Ke, first-order elimination rate constant (converted)
Description: In this equation, i represents the participant index, j the urine sample index, C the creatinine-normalized peak response, and t the sample collection time ( h).Ka denotes the first-order generation constant ( h^−1 ), and Ke denotes the first-order elimination rate constant h^−1 . F indicates the fraction of specific aPM relative to absorbed α-pinene. The variables D and V refer to the absorbed α-pinene amount and the distribution volume, respectively. Because input data were derived from relative quantification, absolute values of D , V , and F were not available. For simplicity, D and V were fixed at 100 and 1, respectively, and F was normalized relative to the sum of all detected aPM. The error term ε accounts for residual variation.

[4] = aPM in mouse urine after i.p. injection of (+)-α-pinene or (−)-α-pinene; type: in vivo, mice (C57BL/6); conditions: for (1R)-(+)-α-Pinene (Average), proportion of aPM in mouse urine / (1S)-(−)-α-Pinene (Average), proportion of aPM in mouse urine: 50 mg/kg; for R/(R+S): mouse urine, enantiomer specificity
Experimental: Mouse urine was collected after exposures to either (+) or (−) α-pinene to distinguish between metabolites of different enantiomers of α-pinene. Adult male mice (C57BL/6) were intraperitoneally administered with 50 mg/kg body weight of (+)-α-pinene or (−)-α-pinene dissolved in 100 μl sterile saline with 1 % Tween 80.

[5] = Urinary aPM after 4 h greenness (forest) exposure; type: in vivo, human; design: Maximum response: unit not given here; conditions: for Frequency of occurrence / Maximum response: human urine, greenness exposure; for Proportion (observed) after greenness exposure: share of total aPM response
Experimental: as §1, §2, §3

[6] = male, C57BL/6, mouse, in vivo, ip
[7] = mouse urine collected overnight, 50 mg/kg i.p. (+)-α-pinene
[8] = mouse urine collected overnight, 50 mg/kg i.p. (−)-α-pinene

Compound	Frequency of occurrence (percentage of samples with analyte detected) [2] [%]	F (%), fraction of metabolite generated from absorbed α-pinene [3] [%]	Ka, first-order generation constant [3] [h⁻¹]	Frequency of occurrence [5] [%]	Maximum response [5]	Proportion (observed) after greenness exposure [5] [%]	Maximum response (highest peak response across all urine samples) [2]	Observed Tmax [2] [min]	Proportion (observed) after α-pinene inhalation [2] [%]	Elimination t1/2 [3] [min]	Ke, first-order elimination rate constant [3] [h⁻¹]	(1R)-(+)-α-Pinene (Average), proportion of aPM in mouse urine [4, 7] [%]	(1S)-(−)-α-Pinene (Average), proportion of aPM in mouse urine [4, 8] [%]	R/(R+S) [4] [%]	also measured
C=C(C)[C@H]1CC=C(C)CC1 [limonene]	–	–	–	–	–	–	–	–	–	–	–	–	–	–	Blood half-life (t1/2α) ([1]; limonene in blood, ref Falk-Filipsson et al., 1993): ~ 3 min
CC1=CC(OC2OC(C(=O)O)C(O)C(O)C2O)C2CC1C2(C)C (centres unmarked) [aPM2b, verbenol glucuronide]	100.0	17.23 ± 3.91	3.46 ± 0.98	6.3	171	0.3	–	–	–	–	–	–	–	–	Tmax [2]: 30 min; half-life [3]: 35.4 ± 4.8 min; k el [3]: 0.000325 s⁻¹; (1R)-(+)-α-Pinene (Average), proportion of aPM in mouse urine [4, 6]: 50.5%; (1S)-(−)-α-Pinene (Average), proportion of aPM in mouse urine [4, 6]: 34.4%; Detection in mouse urine ([4]; mouse, in vivo): present in murine samples
Pinanetriol-GlcA [aPM7b]	83.3	0.28 ± 0.09	2.69 ± 0.73	0.0	–	–	8663	30	0.2	36.6 ± 7.2	1.15 ± 0.22	3.7	0.0	100	–
CC1(C)C2CC=C(C(=O)OC3OC(C(=O)O)C(O)C(O)C3O)C1C2 (single isomer, unassigned) [aPM3a, Myrtenic acid-GlcA]	93.8	2.92 ± 0.94	1.80 ± 0.67	0.0	–	–	50629	60	3.2	55.8 ± 16.2	0.75 ± 0.22	0.0	10.0	0	–
CC1(C)C2CC=C(COC3OC(C(=O)O)C(O)C(O)C3O)C1C2 (centres unmarked) [aPM2c, myrtenol glucuronide]	95.8	6.99 ± 2.12	3.02 ± 0.88	31.3	1435	0.5	154854	–	4.9	–	–	–	–	–	Tmax [2]: 30 min; half-life [3]: 30 ± 5.4 min; k el [3]: 0.000386 s⁻¹; (1R)-(+)-α-Pinene (Average), proportion of aPM in mouse urine [4, 6]: 21.8%; (1S)-(−)-α-Pinene (Average), proportion of aPM in mouse urine [4, 6]: 30.3%
CC1(C)C2CCC(C(=O)OC3OC(C(=O)O)C(O)C(O)C3O)C1C2 (single isomer, unassigned) [aPM4c, Dihydromyrtenic acid-GlcA]	89.6	0.26 ± 0.08	1.65 ± 0.67	0.0	–	–	5156	60	0.5	90.6 ± 32.4	0.46 ± 0.16	0.0	0.1	0.0	–
CC1(C)C2CC1C(OC1OC(C(=O)O)C(O)C(O)C1O)C=C2C(=O)O (single isomer, unassigned) [aPM5g, Myrtenic acid-4-O-GlcA]	100.0	5.10 ± 2.25	1.62 ± 0.81	25.0	98	0.4	77327	60	4.4	41.4 ± 17.4	1.01 ± 0.43	0.0	0.0	–	–
CC1(C)C2CC1C(OC1OC(C(=O)O)C(O)C(O)C1O)C=C2C(=O)O (single isomer, unassigned) [aPM5c, Myrtenic acid-4-O-GlcA]	79.2	1.28 ± 0.53	1.73 ± 0.89	37.5	136	0.7	25963	60	1.2	52.8 ± 21.6	0.79 ± 0.32	0.0	0.0	–	–
CC1(C)C2CC=C(C(=O)OC3OC(C(=O)O)C(O)C(O)C3O)C1C2 (single isomer, unassigned) [aPM3b, Myrtenic acid-GlcA]	100.0	–	1.98 ± 0.60	87.5	2516	17.7	352366	60	–	36.6 ± 7.8	1.13 ± 0.24	1.6	2.7	37.5	Detection in mouse urine ([4]; after exposure to either α-pinene enantiomer): present in murine samples
Pinanetriol-GlcA [aPM7a]	89.6	1.56 ± 0.66	1.46 ± 0.48	0.0	–	–	20611	60	1.3	44.4 ± 13.2	0.93 ± 0.27	21.2	3.8	84.7	–
CC1(C)C2CCC(C(=O)OC3OC(C(=O)O)C(O)C(O)C3O)C1C2 (single isomer, unassigned) [aPM4a, Dihydromyrtenic acid-GlcA]	89.6	3.19 ± 1.11	2.12 ± 0.87	6.3	53	0.0	72991	60	2.4	42.6 ± 13.2	0.98 ± 0.30	0.0	5.0	0.0	–
CC1=CCC2CC1C2(C)C (stereo not drawn) [α-pinene, α-Pinene]	–	–	–	–	–	–	–	–	–	–	–	–	–	–	Blood half-life (t1/2α) ([1]; α-pinene in blood, ref Falk et al., 1990): ~ 5 min
